Patent US4115541A (priority 1975, dated 1978)

Test: Distribution of 99mTc-Sn-AEDP and 85Sr in rabbits, carrier effect of AEDP (Example 4)
Format: in vivo, rabbit
Details: 2 Hrs.
Protocol: Adult New Zealand albino rabbits having an average weight of 3.8 kg were utilized. Strontium-85 was employed as a standard for comparison. […] Each dosage is contained in a volume of 1 ml.
The animals were sacrificed serially from 1 to 24 hours after injection and the activities in major organs were determined by counting multiple samples from each organ in a scintillation well counter (the technetium-99m counts were corrected for the Compton contributions from the strontium-85 activity in the technetium-99m energy window). Multiple samples were counted from the tibia, femur, spine and pelvic bones; the total activity in the skeleton was estimated by assuming the whole skeleton consisted of equal proportions by weight of tibia, spine, femur and pelvis and that the skeletal mass was 10% of the body weight. The red marrow was sampled from the femur and the total marrow was assumed to be 2.2% of the total body weight. Similarly, blood volume was assumed to be 7% and the skeletal muscle 43% of the body weight. The whole liver and both kidneys were weighed and multiple samples from each were counted to measure the total activity in each organ.
In another series of experiments carried out as described in Example 2, the distribution of technetium 99m from its 99m-technetium-tin-methylene diphosphonate complex was determined in albino rabbits, again in comparison with strontium-85.
The distribution of technetium 99m from its 99m technetium-tin-1-amino-ethane-1,1-diphosphonate complex was determined as in Example 3 and compared with the distribution of strontium-85.

Substance: 99m technetium-tin-1-amino-ethane-1,1-diphosphonate complex [^99m Tc-Sn-AEDP]
- Blood, % Dose in Whole Organ (AEDP 0.01 mg/kg): 1.18 % Dose
- Blood, % dose/1% body weight (AEDP 0.01 mg/kg): 0.168 % Dose/1% Body weight
- Bone Ave, % Dose/1% Body weight (AEDP 0.01 mg/kg): 7.60 % Dose/1% Body weight
- Femur, % dose/1% body weight (AEDP 0.01 mg/kg): 7.54 % Dose/1% Body weight
- Kidneys, % Dose in Whole Organ (AEDP 0.01 mg/kg): 1.59 % Dose
- Kidneys, % dose/1% body weight (AEDP 0.01 mg/kg): 2.72 % Dose/1% Body weight
- Liver, % Dose in Whole Organ (AEDP 0.01 mg/kg): 1.69 % Dose
- Liver, % dose/1% body weight (AEDP 0.01 mg/kg): 0.617 % Dose/1% Body weight
- Marrow, % Dose in Whole Organ (AEDP 0.01 mg/kg): 0.657 % Dose
- Marrow, % dose/1% body weight (AEDP 0.01 mg/kg): 0.300 % Dose/1% Body weight
- Muscle, % Dose in Whole Organ (AEDP 0.01 mg/kg): 0.988 % Dose
- Muscle, % dose/1% body weight (AEDP 0.01 mg/kg): 0.037 % Dose/1% Body weight
- Pelvis, % dose/1% body weight (AEDP 0.01 mg/kg): 8.53 % Dose/1% Body weight
- Ratio of 99mTc/85Sr, Ave Bone (AEDP 0.01 mg/kg): 0.735
- Ratio of 99mTc/85Sr, Blood (AEDP 0.01 mg/kg): 0.406
- Ratio of 99mTc/85Sr, Femur (AEDP 0.01 mg/kg): 0.720
- Ratio of 99mTc/85Sr, Kidney (AEDP 0.01 mg/kg): 4.99
- Ratio of 99mTc/85Sr, Liver (AEDP 0.01 mg/kg): 3.00
- Ratio of 99mTc/85Sr, Marrow (AEDP 0.01 mg/kg): 1.27
- Ratio of 99mTc/85Sr, Muscle (AEDP 0.01 mg/kg): 0.338
- Ratio of 99mTc/85Sr, Pelvis (AEDP 0.01 mg/kg): 0.794
- Ratio of 99mTc/85Sr, Spine (AEDP 0.01 mg/kg): 0.689
- Ratio of 99mTc/85Sr, Tibia (AEDP 0.01 mg/kg): 0.710
- Spine, % dose/1% body weight (AEDP 0.01 mg/kg): 6.20 % Dose/1% Body weight
- Tc/Sr ratio (Table 4) (AEDP 0.01 mg/kg): 0.736
- Tibia, % dose/1% body weight (AEDP 0.01 mg/kg): 8.13 % Dose/1% Body weight
- Urine, % Dose (AEDP 0.01 mg/kg): 48.39 % Dose
- W. Femur, % Dose in Whole Organ (AEDP 0.01 mg/kg): 2.34 % Dose
- W. Tibia, % Dose in Whole Organ (AEDP 0.01 mg/kg): 1.96 % Dose
- Blood, % Dose in Whole Organ (AEDP 0.05 mg/kg): 1.01 % Dose
- Blood, % dose/1% body weight (AEDP 0.05 mg/kg): 0.144 % Dose/1% Body weight
- Bone Ave, % Dose/1% Body weight (AEDP 0.05 mg/kg): 8.39 % Dose/1% Body weight
- Femur, % dose/1% body weight (AEDP 0.05 mg/kg): 8.63 % Dose/1% Body weight
- Kidneys, % Dose in Whole Organ (AEDP 0.05 mg/kg): 1.13 % Dose
- Kidneys, % dose/1% body weight (AEDP 0.05 mg/kg): 1.83 % Dose/1% Body weight
- Liver, % Dose in Whole Organ (AEDP 0.05 mg/kg): 0.806 % Dose
- Liver, % dose/1% body weight (AEDP 0.05 mg/kg): 0.176 % Dose/1% Body weight
- Marrow, % Dose in Whole Organ (AEDP 0.05 mg/kg): 0.549 % Dose
- Marrow, % dose/1% body weight (AEDP 0.05 mg/kg): 0.250 % Dose/1% Body weight
- Muscle, % Dose in Whole Organ (AEDP 0.05 mg/kg): 1.20 % Dose
- Muscle, % dose/1% body weight (AEDP 0.05 mg/kg): 0.028 % Dose/1% Body weight
- Pelvis, % dose/1% body weight (AEDP 0.05 mg/kg): 7.82 % Dose/1% Body weight
- Ratio of 99mTc/85Sr, Ave Bone (AEDP 0.05 mg/kg): 0.683
- Ratio of 99mTc/85Sr, Blood (AEDP 0.05 mg/kg): 0.409
- Ratio of 99mTc/85Sr, Femur (AEDP 0.05 mg/kg): 0.687
- Ratio of 99mTc/85Sr, Kidney (AEDP 0.05 mg/kg): 3.30
- Ratio of 99mTc/85Sr, Liver (AEDP 0.05 mg/kg): 1.32
- Ratio of 99mTc/85Sr, Marrow (AEDP 0.05 mg/kg): 1.18
- Ratio of 99mTc/85Sr, Muscle (AEDP 0.05 mg/kg): 0.236
- Ratio of 99mTc/85Sr, Pelvis (AEDP 0.05 mg/kg): 0.684
- Ratio of 99mTc/85Sr, Spine (AEDP 0.05 mg/kg): 0.675
- Ratio of 99mTc/85Sr, Tibia (AEDP 0.05 mg/kg): 0.681
- Spine, % dose/1% body weight (AEDP 0.05 mg/kg): 7.80 % Dose/1% Body weight
- Tc/Sr ratio (Table 4) (AEDP 0.05 mg/kg): 0.680
- Tibia, % dose/1% body weight (AEDP 0.05 mg/kg): 9.30 % Dose/1% Body weight
- Urine, % Dose (AEDP 0.05 mg/kg): 44.21 % Dose
- W. Femur, % Dose in Whole Organ (AEDP 0.05 mg/kg): 2.41 % Dose
- W. Tibia, % Dose in Whole Organ (AEDP 0.05 mg/kg): 2.14 % Dose
- Blood, % Dose in Whole Organ (AEDP 0.1 mg/kg): 0.96 % Dose
- Blood, % dose/1% body weight (AEDP 0.1 mg/kg): 0.137 % Dose/1% Body weight
- Bone Ave, % Dose/1% Body weight (AEDP 0.1 mg/kg): 7.51 % Dose/1% Body weight
- Femur, % dose/1% body weight (AEDP 0.1 mg/kg): 7.93 % Dose/1% Body weight
- Kidneys, % Dose in Whole Organ (AEDP 0.1 mg/kg): 0.913 % Dose
- Kidneys, % dose/1% body weight (AEDP 0.1 mg/kg): 1.28 % Dose/1% Body weight
- Liver, % Dose in Whole Organ (AEDP 0.1 mg/kg): 0.309 % Dose
- Liver, % dose/1% body weight (AEDP 0.1 mg/kg): 0.083 % Dose/1% Body weight
- Marrow, % Dose in Whole Organ (AEDP 0.1 mg/kg): 0.211 % Dose
- Marrow, % dose/1% body weight (AEDP 0.1 mg/kg): 0.096 % Dose/1% Body weight
- Muscle, % Dose in Whole Organ (AEDP 0.1 mg/kg): 1.46 % Dose
- Muscle, % dose/1% body weight (AEDP 0.1 mg/kg): 0.034 % Dose/1% Body weight
- Pelvis, % dose/1% body weight (AEDP 0.1 mg/kg): 6.24 % Dose/1% Body weight
- Ratio of 99mTc/85Sr, Ave Bone (AEDP 0.1 mg/kg): 0.716
- Ratio of 99mTc/85Sr, Blood (AEDP 0.1 mg/kg): 0.409
- Ratio of 99mTc/85Sr, Femur (AEDP 0.1 mg/kg): 0.714
- Ratio of 99mTc/85Sr, Kidney (AEDP 0.1 mg/kg): 2.94
- Ratio of 99mTc/85Sr, Liver (AEDP 0.1 mg/kg): 0.490
- Ratio of 99mTc/85Sr, Marrow (AEDP 0.1 mg/kg): 0.621
- Ratio of 99mTc/85Sr, Muscle (AEDP 0.1 mg/kg): 0.205
- Ratio of 99mTc/85Sr, Pelvis (AEDP 0.1 mg/kg): 0.725
- Ratio of 99mTc/85Sr, Spine (AEDP 0.1 mg/kg): 0.705
- Ratio of 99mTc/85Sr, Tibia (AEDP 0.1 mg/kg): 0.721
- Spine, % dose/1% body weight (AEDP 0.1 mg/kg): 7.36 % Dose/1% Body weight
- Tc/Sr ratio (Table 4) (AEDP 0.1 mg/kg): 0.717
- Tibia, % dose/1% body weight (AEDP 0.1 mg/kg): 8.50 % Dose/1% Body weight
- Urine, % Dose (AEDP 0.1 mg/kg): 38.8 % Dose
- W. Femur, % Dose in Whole Organ (AEDP 0.1 mg/kg): 2.38 % Dose
- W. Tibia, % Dose in Whole Organ (AEDP 0.1 mg/kg): 2.18 % Dose
- Blood, % Dose in Whole Organ (AEDP 0.5 mg/kg): 1.38 % Dose
- Blood, % dose/1% body weight (AEDP 0.5 mg/kg): 0.197 % Dose/1% Body weight
- Bone Ave, % Dose/1% Body weight (AEDP 0.5 mg/kg): 6.96 % Dose/1% Body weight
- Femur, % dose/1% body weight (AEDP 0.5 mg/kg): 6.59 % Dose/1% Body weight
- Kidneys, % Dose in Whole Organ (AEDP 0.5 mg/kg): 1.11 % Dose
- Kidneys, % dose/1% body weight (AEDP 0.5 mg/kg): 2.11 % Dose/1% Body weight
- Liver, % Dose in Whole Organ (AEDP 0.5 mg/kg): 0.216 % Dose
- Liver, % dose/1% body weight (AEDP 0.5 mg/kg): 0.079 % Dose/1% Body weight
- Marrow, % Dose in Whole Organ (AEDP 0.5 mg/kg): 0.23 % Dose
- Marrow, % dose/1% body weight (AEDP 0.5 mg/kg): 0.104 % Dose/1% Body weight
- Muscle, % Dose in Whole Organ (AEDP 0.5 mg/kg): 0.883 % Dose
- Muscle, % dose/1% body weight (AEDP 0.5 mg/kg): 0.021 % Dose/1% Body weight
- Pelvis, % dose/1% body weight (AEDP 0.5 mg/kg): 7.93 % Dose/1% Body weight
- Ratio of 99mTc/85Sr, Ave Bone (AEDP 0.5 mg/kg): 0.644
- Ratio of 99mTc/85Sr, Blood (AEDP 0.5 mg/kg): 0.280
- Ratio of 99mTc/85Sr, Femur (AEDP 0.5 mg/kg): 0.628
- Ratio of 99mTc/85Sr, Kidney (AEDP 0.5 mg/kg): 2.47
- Ratio of 99mTc/85Sr, Liver (AEDP 0.5 mg/kg): 0.459
- Ratio of 99mTc/85Sr, Marrow (AEDP 0.5 mg/kg): 0.500
- Ratio of 99mTc/85Sr, Muscle (AEDP 0.5 mg/kg): 0.140
- Ratio of 99mTc/85Sr, Pelvis (AEDP 0.5 mg/kg): 0.692
- Ratio of 99mTc/85Sr, Spine (AEDP 0.5 mg/kg): 0.614
- Ratio of 99mTc/85Sr, Tibia (AEDP 0.5 mg/kg): 0.632
- Spine, % dose/1% body weight (AEDP 0.5 mg/kg): 6.05 % Dose/1% Body weight
- Tc/Sr ratio (Table 4) (AEDP 0.5 mg/kg): 0.645
- Tibia, % dose/1% body weight (AEDP 0.5 mg/kg): 7.27 % Dose/1% Body weight
- Urine, % Dose (AEDP 0.5 mg/kg): 48.85 % Dose
- W. Femur, % Dose in Whole Organ (AEDP 0.5 mg/kg): 1.74 % Dose
- W. Tibia, % Dose in Whole Organ (AEDP 0.5 mg/kg): 1.55 % Dose
